By Emax is commonly meant the greatest response seen or fitted, relative to the assay's reference. In general, EC50 refers to the concentration that produces a half-maximal response.

Type in all cases: cell-based
The target in assay [1] is T1, 5-HT2C (Homo sapiens, UniProt P28335).
T1 construct: host or cells: HEK293
T1 sequence (P28335 33-458): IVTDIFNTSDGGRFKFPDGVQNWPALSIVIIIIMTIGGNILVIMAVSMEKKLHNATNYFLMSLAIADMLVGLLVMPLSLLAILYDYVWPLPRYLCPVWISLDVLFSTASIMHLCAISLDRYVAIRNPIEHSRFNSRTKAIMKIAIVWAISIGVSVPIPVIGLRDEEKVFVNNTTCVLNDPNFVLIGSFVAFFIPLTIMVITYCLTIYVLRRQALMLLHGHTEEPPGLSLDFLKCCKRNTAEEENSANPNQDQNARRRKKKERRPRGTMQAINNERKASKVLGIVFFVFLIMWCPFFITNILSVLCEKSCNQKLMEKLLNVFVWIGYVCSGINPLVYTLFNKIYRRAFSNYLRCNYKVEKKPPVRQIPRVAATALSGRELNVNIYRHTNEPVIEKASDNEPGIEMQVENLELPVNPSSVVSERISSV
Nature of the assay: FLIPR Ca2+ flux functional assay, 5-HT2C (HEK293). The following applies: HEK293 cells expressing 5-HT2C; for Emax: HEK293, agonist activity; for EC50: agonist activity.

Assay [2] addresses T2, 5-HT2A (Homo sapiens, UniProt P28223).
T2 construct: host or cells: HEK293
In words: FLIPR Ca2+ flux functional assay, 5-HT2A (HEK293). Particulars: HEK293 cells expressing 5-HT2A; for Emax: HEK293, agonist activity; for EC50: agonist activity. (Calcium flux is commonly read through the fluorescence of an indicator in the cells.)

Assay [3] deals with T3, 5-HT2B (Homo sapiens, UniProt P41595).
T3 construct: host or cells: CHO-K1
Nature of the assay: Activation in a similar Ca2+ flux assay at a single concentration, 5-HT2B. The following applies: head prints 10 µM. Here is the method:
Activity at 5-HT2A, 5-HT2B and 5-HT2C receptors was determined using a FLIPR Ca2+ flux assay at WuXi AppTec Co. Ltd. (Hong Kong) Discovery Biology Unit according to their standard protocols. Briefly, stably transfected cells expressing the receptor of interest (HEK293 for 5-HT2A and 5-HT2C; CHO-K1 for 5-HT2B) were grown and plated in a 384 well plate and incubated at 37° C. and 5% CO2 overnight. A 250 mM stock solution of probenecid in FLIPR calcium assay buffer (10 mL) was freshly prepared and combined with a fluorescent dye (Fluo-4 Direct) to give a final assay concentration of 2.5 mM. Reference compounds were 4-fold serially diluted and the screening compounds were 3-fold serially diluted in 100% DMSO for 10 points using Agilent Bravo, and 750 nL was added to a 384 well compound plate using Echo along with 30 μL assay buffer. The fluorescent dye was then added to the assay plate along with assay buffer to a final volume of 40 μL. The cell plate was incubated for 50 min at 37° C. and 5% CO2 and placed into the FLIPR Tetra along with the compound plate. 10 μL of references and compounds were then transferred from the compound plate into the cell plate and the fluorescent signal was read.
Activation data are provided in a similar assay tested at a single 10 μM concentration.

The structures appear in SMILES notation.

T2 sequence (P28223 whole entry): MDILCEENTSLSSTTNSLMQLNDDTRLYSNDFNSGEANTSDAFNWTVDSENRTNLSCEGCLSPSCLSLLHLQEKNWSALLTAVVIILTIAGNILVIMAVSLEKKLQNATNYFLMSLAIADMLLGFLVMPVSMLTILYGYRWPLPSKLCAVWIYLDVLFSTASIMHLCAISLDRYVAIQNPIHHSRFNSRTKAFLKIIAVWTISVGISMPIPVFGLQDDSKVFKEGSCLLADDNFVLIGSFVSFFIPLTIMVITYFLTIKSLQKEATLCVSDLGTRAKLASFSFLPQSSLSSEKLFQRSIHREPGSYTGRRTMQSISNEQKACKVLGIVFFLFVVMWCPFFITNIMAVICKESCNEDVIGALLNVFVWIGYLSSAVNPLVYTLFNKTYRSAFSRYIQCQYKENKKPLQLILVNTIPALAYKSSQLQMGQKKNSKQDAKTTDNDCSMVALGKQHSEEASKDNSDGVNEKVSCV
T3 sequence (P41595 whole entry, species assumed): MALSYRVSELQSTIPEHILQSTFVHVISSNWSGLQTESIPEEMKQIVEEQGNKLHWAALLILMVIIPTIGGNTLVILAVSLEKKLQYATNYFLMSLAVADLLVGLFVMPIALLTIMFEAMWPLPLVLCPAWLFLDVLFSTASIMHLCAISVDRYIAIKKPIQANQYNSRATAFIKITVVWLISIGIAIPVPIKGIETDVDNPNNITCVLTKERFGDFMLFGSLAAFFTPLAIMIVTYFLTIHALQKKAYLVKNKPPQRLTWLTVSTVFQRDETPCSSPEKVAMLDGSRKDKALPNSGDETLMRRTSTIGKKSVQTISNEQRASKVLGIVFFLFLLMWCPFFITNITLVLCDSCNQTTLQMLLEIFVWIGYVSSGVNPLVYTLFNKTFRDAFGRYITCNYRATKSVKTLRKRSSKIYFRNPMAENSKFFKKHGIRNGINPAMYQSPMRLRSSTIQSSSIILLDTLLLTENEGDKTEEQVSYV

`COc1ccccc1CNCCc1n[nH]c2cccc(F)c12` [Example A34, 2-(4-fluoro-1H-indazol-3-yl)-N-(2-methoxybenzyl)ethan-1-amine]: in assay [1], the Emax came out at 84% and the 50% effective concentration (EC50) came out at 167 nM. In assay [2], this compound gave an Emax of 86% and an EC50 of 55.2 nM. The “5-HT2B % Activation @ 10 µM” value in assay [3] was 0%.

Turning to `CN(C)CCc1n[nH]c2c(F)cc(F)cc12` [Example A35, 2-(5,7-difluoro-1H-indazol-3-yl)-N,N-dimethylethan-1-amine], the maximal response (Emax) in assay [1] is 54%; in assay [2], 72%. Further, the EC50 in assay [1] came to 495 nM; in assay [2], 213 nM. Besides, in assay [3], the “5-HT2B % Activation @ 10 µM” value stood at 1%.

In assay [1], `CCN(C)CCc1n[nH]c2c(F)cc(F)cc12` [Example A36, 2-(5,7-difluoro-1H-indazol-3-yl)-N-ethyl-N-methylethan-1-amine] yielded an Emax of 55% and an EC50 of 732 nM. In assay [2], this compound had a maximal effect (Emax) of 70% and a concentration giving a half-maximal response (EC50) of 361 nM. Moreover, the “5-HT2B % Activation @ 10 µM” value in assay [3] is 0%.

As for `CC(C)N(C)CCc1n[nH]c2c(F)cc(F)cc12` [Example A37, N-(2-(5,7-difluoro-1H-indazol-3-yl)ethyl)-N-methylpropan-2-amine], in assay [1], the maximal effect (Emax) was found to be 11% and the half-maximal effective concentration (EC50) was above 10000 nM. In assay [2], this compound had an Emax of 57% and a 50% effective concentration (EC50) of 810 nM. The “5-HT2B % Activation @ 10 µM” value in assay [3] was determined as 0%.

Turning to `COc1cc(F)cc2[nH]nc(CCN(C)C)c12` [Example A38, 2-(6-fluoro-4-methoxy-1H-indazol-3-yl)-N,N-dimethylethan-1-amine], the maximal response (Emax) in assay [1] turned out to be 75%; in assay [2], 77%. In addition, the 50% effective concentration (EC50) in assay [1] worked out at 203 nM; in assay [2], 75 nM. Moreover, in assay [3], the “5-HT2B % Activation @ 10 µM” value amounted to 0%.

Regarding `CCN(C)CCc1n[nH]c2cc(F)cc(OC)c12` [Example A39, N-ethyl-2-(6-fluoro-4-methoxy-1H-indazol-3-yl)-N-methylethan-1-amine], in assay [1], the maximum response (Emax) stood at 78% and a half-maximal effect (EC50) was put at 375 nM. Moreover, in assay [2], the Emax amounted to 75% and the midpoint of the response, the EC50, lay at 116 nM. For the same compound, the “5-HT2B % Activation @ 10 µM” value in assay [3] is given as 0%.

For `COc1cc(F)cc2[nH]nc(CCN(C)C(C)C)c12` [Example A40, N-(2-(6-fluoro-4-methoxy-1H-indazol-3-yl)ethyl)-N-methylpropan-2-amine], in assay [1], the maximum response (Emax) amounted to 68% and the EC50 is above 10000 nM. In assay [2], this compound came in with an Emax of 72% and a half-maximal effective concentration (EC50) of 322 nM. Moreover, in assay [3], the “5-HT2B % Activation @ 10 µM” value is given as 0%.

Consider `COc1cc(F)cc2[nH]nc(CCN3CCC4CC43)c12` (centres unmarked) [Example A43, 3-(2-(2-azabicyclo[3.1.0]hexan-2-yl)ethyl)-6-fluoro-4-methoxy-1H-indazole], for which, in assay [1], the Emax is 99% and the EC50 came out at 39.9 nM. Moreover, in assay [2], the Emax came to 89% and the response was half-maximal at 29.7 nM (EC50). For the same compound, the “5-HT2B % Activation @ 10 µM” value in assay [3] came to 102%.

Turning to `COc1ccc(F)c2[nH]nc(CCN(C)C)c12` [Example A44, 2-(7-fluoro-4-methoxy-1H-indazol-3-yl)-N,N-dimethylethan-1-amine], the Emax stood at 44% in assay [1] and 52% in assay [2]. Also, the results for the concentration giving a half-maximal response (EC50) in assay [1] and in assay [2] were 222 nM and 93 nM, respectively. In assay [3], the “5-HT2B % Activation @ 10 µM” value worked out at 0%.

For `CCN(C)CCc1n[nH]c2c(F)ccc(OC)c12` [Example A45, N-ethyl-2-(7-fluoro-4-methoxy-1H-indazol-3-yl)-N-methylethan-1-amine], the Emax in assay [1] was found to be 61%; in assay [2], 67%. In addition, the EC50 turned out to be 614 nM in assay [1] and 163 nM in assay [2]. Moreover, the “5-HT2B % Activation @ 10 µM” value in assay [3] is 0%.

On to `COc1ccc(F)c2[nH]nc(CCN(C)C(C)C)c12` [Example A46, N-(2-(7-fluoro-4-methoxy-1H-indazol-3-yl)ethyl)-N-methylpropan-2-amine], for which the maximal response (Emax) in assay [1] worked out at 0%; in assay [2], 74%. Moreover, the EC50 is above 10000 nM in assay [1] and 133 nM in assay [2]. In addition, the “5-HT2B % Activation @ 10 µM” value in assay [3] was found to be 0%.

As to `COc1ccc(F)c2[nH]nc(CCN3CCC3)c12` [Example A47, 3-(2-(azetidin-1-yl)ethyl)-7-fluoro-4-methoxy-1H-indazole], the Emax in assay [1] was found to be 72%; in assay [2] it was 88%. Further, the EC50 in assay [1] was 64 nM; in assay [2], 105 nM. In assay [3], the “5-HT2B % Activation @ 10 µM” value came out at 17%.

With `COc1ccc(F)c2[nH]nc(CCN3CCC4CC43)c12` (centres unmarked) [Example A49, 3-(2-(2-azabicyclo[3.1.0]hexan-2-yl)ethyl)-7-fluoro-4-methoxy-1H-indazole], the Emax amounted to 59% in assay [1] and 69% in assay [2]. Further, the EC50 in assay [1] worked out at 166 nM; in assay [2] it was 216 nM. Moreover, the “5-HT2B % Activation @ 10 µM” value in assay [3] came out at 7%.

For `COc1cc(F)c2[nH]nc(CCN(C)C)c2c1` [Example A50, 2-(7-fluoro-5-methoxy-1H-indazol-3-yl)-N,N-dimethylethan-1-amine], the maximal effect (Emax) in assay [1] turned out to be 11%; in assay [2], 79%. Besides, the EC50 is above 10000 nM in assay [1] and 242 nM in assay [2]. Besides, the “5-HT2B % Activation @ 10 µM” value in assay [3] came out at 2%.

Consider `CCN(C)CCc1n[nH]c2c(F)cc(OC)cc12` [Example A51, N-ethyl-2-(7-fluoro-5-methoxy-1H-indazol-3-yl)-N-methylethan-1-amine], for which, in assay [1], the Emax came out at 43% and the 50% effective concentration (EC50) was found to be 1370 nM. In assay [2], this compound came in with an Emax of 85% and an EC50 of 88 nM. Also, in assay [3], the “5-HT2B % Activation @ 10 µM” value is listed as 1%.

For `COc1cc(F)c2[nH]nc(CCN(C)C(C)C)c2c1` [Example A52, N-(2-(7-fluoro-5-methoxy-1H-indazol-3-yl)ethyl)-N-methylpropan-2-amine], in assay [1], the maximal response (Emax) stood at 0% and the EC50 was above 10000 nM. Besides, in assay [2], the maximal response (Emax) stood at 42% and a half-maximal effect (EC50) was put at 650 nM. Also, the “5-HT2B % Activation @ 10 µM” value in assay [3] turned out to be 0%.

`COc1cc(F)c2[nH]nc(CCN3CCC3)c2c1` [Example A53, 3-(2-(azetidin-1-yl)ethyl)-7-fluoro-5-methoxy-1H-indazole]: the maximum response (Emax) in assay [1] worked out at 48%; in assay [2], 94%. Also, the values for the half-maximal effective concentration (EC50) in assay [1] and in assay [2] were 1180 nM and 318 nM, respectively. Moreover, the “5-HT2B % Activation @ 10 µM” value in assay [3] is 0%.

For the compound `COc1cc(F)c2[nH]nc(CCN3CCC4CC43)c2c1` (centres unmarked) [Example A55, 3-(2-(2-azabicyclo[3.1.0]hexan-2-yl)ethyl)-7-fluoro-5-methoxy-1H-indazole], in assay [1], the maximal effect (Emax) was 87% and the EC50 came to 207 nM. In assay [2], the Emax came out at 86.2% and the midpoint of the response, the EC50, lay at 39.8 nM. In addition, in assay [3], the “5-HT2B % Activation @ 10 µM” value is on record as 48%.

In assay [1], `COc1cc2c(CCN3CCC3)n[nH]c2cc1F` [Example A56, 3-(2-(azetidin-1-yl)ethyl)-6-fluoro-5-methoxy-1H-indazole] registered an Emax of 50% and an EC50 of 3070 nM. For the same compound, in assay [2], the Emax amounted to 90% and the EC50 worked out at 105 nM. Moreover, in assay [3], the “5-HT2B % Activation @ 10 µM” value turned out to be 11%.

In assay [1], `COc1cc2c(CCN3CC(C)C3)n[nH]c2cc1F` [Example A57, 6-fluoro-5-methoxy-3-(2-(3-methylazetidin-1-yl)ethyl)-1H-indazole] displayed a maximal effect (Emax) of 3% and an EC50 above 10000 nM. In assay [2], this compound showed a maximal effect (Emax) of 70% and an EC50 of 610 nM. Also, the “5-HT2B % Activation @ 10 µM” value in assay [3] worked out at 0%.

As for `COc1cc2c(CCN3CCC3C)n[nH]c2cc1F` (centres unmarked) [Example A58, 6-fluoro-5-methoxy-3-(2-(2-methylazetidin-1-yl)ethyl)-1H-indazole], in assay [1], the maximal response (Emax) was 19% and the EC50 was above 10000 nM. For the same compound, in assay [2], the Emax worked out at 57% and the EC50 was determined as 1130 nM. For the same compound, in assay [3], the “5-HT2B % Activation @ 10 µM” value is recorded as 0%.

As for `COc1cc2c(CCN3CCCC3)n[nH]c2cc1F` [Example A59, 6-fluoro-5-methoxy-3-(2-(pyrrolidin-1-yl)ethyl)-1H-indazole], the maximum response (Emax) in assay [1] was 66%; in assay [2], 79%. The half-maximal effective concentration (EC50) turned out to be 3870 nM in assay [1] and 202 nM in assay [2]. Moreover, the “5-HT2B % Activation @ 10 µM” value in assay [3] came out at 5%.
